# From patent US20220402862A1 (Intellia Therapeutics, Inc., priority 2019, published 2022)
# “And” between values parts separate entries of the source, which are not always exact repeats. Equal entries are not always repeated.
# Legend:
# [1] = pKa measurement of unformulated amine lipid (fluorescence, method of Jayaraman et al.); assay type: physicochemical; details: 100 μM in 0.1 M phosphate buffer, pH 2.0-12.0
# Method: The pKa of each amine lipid was determined according to the method in Jayaraman, et al. (Angewandte Chemie, 2012) with the following adaptations. […] Lipid was diluted to 100 μM in 0.1 M phosphate buffer (Boston Bioproducts) where the pH ranged from 2.0-12.0. Fluorescence intensity was measured using excitation and emission wavelengths of 321 nm and 448 nm.
# [2] = RNA encapsulation efficiency of LNPs (Ribogreen fluorescence assay); assay type: physicochemical; details: LNP, sg:mRNA 1:1, N/P about 6, amine lipid/DSPC/cholesterol/PEG-2k-DMG 50/9/38/3; Table 2, Experiments 2-20
# In short: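 Encapsulation efficiency is (Total RNA − Free RNA)/Total RNA. Free RNA was quantified by RiboGreen fluorescence (488/525 nm, ~10 min, RT, dark) in plain TE buffer; total RNA was quantified after LNP lysis with 0.2% Triton X-100, both against RNA standard curves.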
# [3] = Dynamic light scattering of LNPs: Z-average diameter, number average diameter, PDI; assay type: physicochemical; details: LNP, sg:mRNA 1:1, N/P about 6, 50/9/38/3; Table 2, Experiments 2-20
# In short: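 Values reported are the Z-average (intensity-weighted mean size), the number-average diameter and the PDI (spread of sizes, 0 = fully uniform). All three came from dynamic light scattering of LNP preparations after dilution in PBS.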
# [4] = test system: Transthyretin (TTR); assay: Serum TTR ELISA in mice after LNP dosing; assay type: in vivo, CD-1 female mice; details: guide G282 experiments; for Serum TTR % TSS: mouse serum TTR relative to TSS control; for Serum TTR: mouse serum, ELISA
# In short: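 Serum mouse TTR was quantified by ELISA at 10,000-fold dilution for 0.1 mg/kg and 10,000/2,500-fold for 0.3 mg/kg. Samples came from female CD-1 mice (6–10 weeks) killed 6 or 7 days after a single intravenous LNP dose, usually 0.1 mg/kg.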
Structure (SMILES),pKa [1],Encapsulation (%) [2],Number mean (nm) [3],PDI [3],Z-avg (nm) [3],Serum TTR % TSS [4] [%],Serum TTR [4] [µg/mL]
"CCCCC/C=C\C/C=C\CCCCCCCC(=O)OCC(COC(=O)CCC(OCCCCCCCC)OCCCCCCCC)COC(=O)N1CCN(C)CC1 (stereo not shown) [Compound 47, 3-((4,4-bis(octyloxy)butanoyl)oxy)-2-((((9Z,12Z)-octadeca-9,12-dienoyl)oxy)methyl)propyl 4-methylpiperazine-1-carboxylate]",5.9,97%,40.95 nm,0.086,58.93 nm,96,1075
"CCCCC/C=C\C/C=C\CCCCCCCC(=O)OCC(COC(=O)CCC(OCCCCCCCC)OCCCCCCCC)COC(=O)N1CCN(CC)CC1 (stereo not shown) [Compound 48, 3-((4,4-bis(octyloxy)butanoyl)oxy)-2-((((9Z,12Z)-octadeca-9,12-dienoyl)oxy)methyl)propyl 4-ethylpiperazine-1-carboxylate]",5.3,97%,45.32 nm,0.085,64.68 nm,82,915
"CCCCC/C=C\C/C=C\CCCCCCCC(=O)OCC(COC(=O)CCC(OCCCCCCCC)OCCCCCCCC)COC(=O)OCC1CCN(CC)C1 (stereo not shown) [Compound 51, 3-((4,4-bis(octyloxy)butanoyl)oxy)-2-(((((1-ethylpyrrolidin-3-yl)methoxy)carbonyl)oxy)methyl)propyl (9Z,12Z)-octadeca-9,12-dienoate]",7.3,98%,72.23 nm,0.018,86.15 nm,76,843
"CCCCC/C=C\C/C=C\CCCCCCCC(=O)OCC(COC(=O)CCC(OCCCCCCCC)OCCCCCCCC)COC(=O)OCC1(C)CCCN(CC)C1 (stereo not shown) [Compound 52, 3-((4,4-bis(octyloxy)butanoyl)oxy)-2-(((((1-ethyl-3-methylpiperidin-3-yl)methoxy)carbonyl)oxy)methyl)propyl (9Z,12Z)-octadeca-9,12-dienoate]",7.8,99%,69.4 nm,0.032,86.72 nm,84,935
"CCCCCC/C=C\COC(=O)CCCCCC(=O)OCC(COC(=O)CCC(OCCCCCCCC)OCCCCCCCC)COC(=O)OCCCN(CC)CC (stereo not shown) [Compound 55, (Z)-1-(3-((4,4-bis(octyloxy)butanoyl)oxy)-2-((((3-(diethylamino)propoxy)carbonyl)oxy)methyl)propyl) 7-(non-2-en-1-yl) heptanedioate]",6.84,96% and 92%,79.46 nm and 90.16 nm,0.048 and 0.039,101 nm and 113.2 nm,51,442
"CCCCCC/C=C\COC(=O)CCCC(=O)OCC(COC(=O)CCC(OCCCCCCCC)OCCCCCCCC)COC(=O)OCCCN(CC)CC (stereo not shown) [Compound 56, (Z)-3-((4,4-bis(octyloxy)butanoyl)oxy)-2-((((3-(diethylamino)propoxy)carbonyl)oxy)methyl)propyl non-2-en-1-yl glutarate]",6.85,96%,81.44 nm,0.067,105.2 nm,66,576
"CCCCCCCCCCOC(=O)CCCCCCCC(=O)OCC(COC(=O)CCC(OCCCCCCCC)OCCCCCCCC)COC(=O)OCC1CCCN(C)C1 (stereo not shown) [Compound 71, 1-(3-((4,4-bis(octyloxy)butanoyl)oxy)-2-(((((1-methylpiperidin-3-yl)methoxy)carbonyl)oxy)methyl)propyl) 9-decyl nonanedioate]",6.44,99%,76.95 nm,0.035,95.57 nm,50,462
